These results are taken from publication PMC9030254, “Target Hopping from Protein Kinases to PXR: Identification of Small-Molecule Protein Kinase Inhibitors as Selective Modulators of Pregnane X Receptor from TüKIC Library” (Cells, 2022).

Assay in all cases: Kinase profiling
Common to all, as to assay type: biochemical

For one test, the target named is T1, TTK (Homo sapiens, UniProt P33981).
T1 construct: purchased ProQinase (Freiburg, Germany)
T1 sequence (P33981 1-857): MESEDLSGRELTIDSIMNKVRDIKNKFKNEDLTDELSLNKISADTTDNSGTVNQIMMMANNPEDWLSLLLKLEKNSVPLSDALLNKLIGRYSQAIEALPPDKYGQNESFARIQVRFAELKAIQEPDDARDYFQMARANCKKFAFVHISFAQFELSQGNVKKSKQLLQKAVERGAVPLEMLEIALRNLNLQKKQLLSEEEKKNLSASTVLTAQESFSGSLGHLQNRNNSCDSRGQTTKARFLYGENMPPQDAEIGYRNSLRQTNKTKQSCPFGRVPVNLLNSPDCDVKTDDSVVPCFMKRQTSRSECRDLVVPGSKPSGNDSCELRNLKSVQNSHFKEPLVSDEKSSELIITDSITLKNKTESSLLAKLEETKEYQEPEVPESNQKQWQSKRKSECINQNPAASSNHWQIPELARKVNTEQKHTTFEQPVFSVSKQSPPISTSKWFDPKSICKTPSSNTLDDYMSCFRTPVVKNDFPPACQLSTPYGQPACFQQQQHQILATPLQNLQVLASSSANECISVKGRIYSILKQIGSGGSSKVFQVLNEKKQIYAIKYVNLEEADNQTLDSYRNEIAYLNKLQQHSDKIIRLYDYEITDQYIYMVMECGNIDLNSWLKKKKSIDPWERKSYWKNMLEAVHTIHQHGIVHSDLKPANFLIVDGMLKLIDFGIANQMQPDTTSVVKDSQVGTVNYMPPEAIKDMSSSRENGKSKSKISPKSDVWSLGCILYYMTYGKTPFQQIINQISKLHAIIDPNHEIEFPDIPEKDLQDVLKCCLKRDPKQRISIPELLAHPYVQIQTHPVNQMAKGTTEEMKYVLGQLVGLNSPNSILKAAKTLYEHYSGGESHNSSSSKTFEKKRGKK
On the procedure: (§1) The analysis was performed by ProQinase (Freiburg, Germany).

The target of the next test is T2, EPHA6 (Homo sapiens, UniProt Q9UF33).
T2 construct: purchased ProQinase (Freiburg, Germany)
T2 sequence (Q9UF33 23-1036): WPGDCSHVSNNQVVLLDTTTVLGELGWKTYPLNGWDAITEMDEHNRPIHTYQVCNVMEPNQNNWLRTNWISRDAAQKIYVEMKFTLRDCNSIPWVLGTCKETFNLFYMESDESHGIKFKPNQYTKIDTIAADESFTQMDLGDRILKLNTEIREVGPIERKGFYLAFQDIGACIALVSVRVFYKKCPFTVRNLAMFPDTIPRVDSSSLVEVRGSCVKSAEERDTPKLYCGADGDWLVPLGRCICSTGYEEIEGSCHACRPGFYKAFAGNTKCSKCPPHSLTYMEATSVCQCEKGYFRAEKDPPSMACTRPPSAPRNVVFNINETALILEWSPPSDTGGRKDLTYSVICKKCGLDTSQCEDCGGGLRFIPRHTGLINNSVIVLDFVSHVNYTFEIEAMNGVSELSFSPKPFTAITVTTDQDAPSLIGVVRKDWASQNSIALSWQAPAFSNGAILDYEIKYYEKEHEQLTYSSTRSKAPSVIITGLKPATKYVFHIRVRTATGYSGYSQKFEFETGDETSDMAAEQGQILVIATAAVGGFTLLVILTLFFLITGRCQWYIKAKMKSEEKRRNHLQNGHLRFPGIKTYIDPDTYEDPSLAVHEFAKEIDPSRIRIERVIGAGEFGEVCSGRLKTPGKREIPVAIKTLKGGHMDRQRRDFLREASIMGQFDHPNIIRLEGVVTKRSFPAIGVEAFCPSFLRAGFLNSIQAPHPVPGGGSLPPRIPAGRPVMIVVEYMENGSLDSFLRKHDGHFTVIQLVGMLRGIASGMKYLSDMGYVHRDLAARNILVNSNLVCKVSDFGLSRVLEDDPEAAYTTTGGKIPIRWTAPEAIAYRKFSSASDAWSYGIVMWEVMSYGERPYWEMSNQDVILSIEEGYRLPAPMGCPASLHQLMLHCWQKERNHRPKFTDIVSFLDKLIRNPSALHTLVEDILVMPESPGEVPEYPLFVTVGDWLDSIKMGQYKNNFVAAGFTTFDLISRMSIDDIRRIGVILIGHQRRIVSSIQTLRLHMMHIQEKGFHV
The method, then:
as §1

For another test, the target named is T3, PAK4 (Homo sapiens, UniProt O96013).
T3 construct: purchased ProQinase (Freiburg, Germany)
T3 sequence (O96013 whole entry): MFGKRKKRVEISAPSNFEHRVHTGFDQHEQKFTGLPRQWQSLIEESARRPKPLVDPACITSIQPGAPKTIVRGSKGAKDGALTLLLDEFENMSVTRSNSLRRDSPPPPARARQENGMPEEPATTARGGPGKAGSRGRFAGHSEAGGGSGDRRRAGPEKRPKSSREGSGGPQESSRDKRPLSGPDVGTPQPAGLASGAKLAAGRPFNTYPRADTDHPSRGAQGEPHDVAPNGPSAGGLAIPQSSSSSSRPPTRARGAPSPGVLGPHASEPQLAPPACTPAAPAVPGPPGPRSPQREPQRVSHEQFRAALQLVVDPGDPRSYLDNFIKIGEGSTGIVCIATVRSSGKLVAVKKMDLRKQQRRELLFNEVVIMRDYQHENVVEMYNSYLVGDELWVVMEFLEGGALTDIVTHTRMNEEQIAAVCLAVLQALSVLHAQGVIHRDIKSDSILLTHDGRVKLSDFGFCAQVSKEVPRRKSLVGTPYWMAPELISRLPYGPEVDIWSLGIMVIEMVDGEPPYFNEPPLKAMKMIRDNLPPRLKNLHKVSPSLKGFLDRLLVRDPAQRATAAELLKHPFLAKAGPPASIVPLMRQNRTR
On the procedure: as §1

In the next test the target is T4, SLK (Homo sapiens, UniProt Q9H2G2).
T4 construct: purchased ProQinase (Freiburg, Germany)
T4 sequence (Q9H2G2 whole entry): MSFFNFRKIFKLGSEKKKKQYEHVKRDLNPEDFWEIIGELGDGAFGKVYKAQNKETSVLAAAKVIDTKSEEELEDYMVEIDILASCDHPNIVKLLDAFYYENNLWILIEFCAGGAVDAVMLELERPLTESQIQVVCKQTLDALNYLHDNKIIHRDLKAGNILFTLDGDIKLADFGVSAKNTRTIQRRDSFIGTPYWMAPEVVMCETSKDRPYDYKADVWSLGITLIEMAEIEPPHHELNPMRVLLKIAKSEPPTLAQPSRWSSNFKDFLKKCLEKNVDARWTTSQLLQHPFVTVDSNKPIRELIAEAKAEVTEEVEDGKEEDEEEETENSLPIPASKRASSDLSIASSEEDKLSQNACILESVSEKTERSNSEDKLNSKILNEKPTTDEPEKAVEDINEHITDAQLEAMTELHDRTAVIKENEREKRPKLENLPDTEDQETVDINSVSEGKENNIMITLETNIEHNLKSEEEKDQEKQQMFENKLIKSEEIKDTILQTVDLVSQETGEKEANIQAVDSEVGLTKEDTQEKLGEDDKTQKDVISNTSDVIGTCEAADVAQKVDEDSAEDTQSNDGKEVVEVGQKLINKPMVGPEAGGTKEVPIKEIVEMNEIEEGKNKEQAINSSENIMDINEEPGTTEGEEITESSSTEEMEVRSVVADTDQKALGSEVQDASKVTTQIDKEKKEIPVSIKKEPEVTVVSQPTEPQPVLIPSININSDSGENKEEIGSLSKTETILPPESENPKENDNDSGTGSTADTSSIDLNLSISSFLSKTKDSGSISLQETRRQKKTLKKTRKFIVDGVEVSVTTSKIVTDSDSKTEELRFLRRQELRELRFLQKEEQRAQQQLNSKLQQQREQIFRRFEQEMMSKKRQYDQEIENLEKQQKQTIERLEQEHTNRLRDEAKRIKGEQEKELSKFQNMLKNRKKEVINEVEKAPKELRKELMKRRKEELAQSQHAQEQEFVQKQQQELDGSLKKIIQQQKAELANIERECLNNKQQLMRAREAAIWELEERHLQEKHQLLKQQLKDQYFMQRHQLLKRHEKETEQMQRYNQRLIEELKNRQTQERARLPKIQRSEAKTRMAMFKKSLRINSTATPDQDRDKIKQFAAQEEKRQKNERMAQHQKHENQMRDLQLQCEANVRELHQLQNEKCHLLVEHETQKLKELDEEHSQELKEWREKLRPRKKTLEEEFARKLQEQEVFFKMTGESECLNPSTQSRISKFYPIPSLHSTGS
The method, then:
as §1

The next test addresses T5, CDK3/CycC (Homo sapiens, UniProt Q00526).
T5 construct: purchased ProQinase (Freiburg, Germany)
The method, then:
as §1

A further test concerns the target T6, CDK12/CycK (Homo sapiens, UniProt Q9NYV4).
T6 construct: purchased ProQinase (Freiburg, Germany)
The method, then:
as §1

For another test, the target named is T7, SIK2 (Homo sapiens, UniProt Q9H0K1).
T7 construct: purchased ProQinase (Freiburg, Germany)
T7 sequence (Q9H0K1 whole entry): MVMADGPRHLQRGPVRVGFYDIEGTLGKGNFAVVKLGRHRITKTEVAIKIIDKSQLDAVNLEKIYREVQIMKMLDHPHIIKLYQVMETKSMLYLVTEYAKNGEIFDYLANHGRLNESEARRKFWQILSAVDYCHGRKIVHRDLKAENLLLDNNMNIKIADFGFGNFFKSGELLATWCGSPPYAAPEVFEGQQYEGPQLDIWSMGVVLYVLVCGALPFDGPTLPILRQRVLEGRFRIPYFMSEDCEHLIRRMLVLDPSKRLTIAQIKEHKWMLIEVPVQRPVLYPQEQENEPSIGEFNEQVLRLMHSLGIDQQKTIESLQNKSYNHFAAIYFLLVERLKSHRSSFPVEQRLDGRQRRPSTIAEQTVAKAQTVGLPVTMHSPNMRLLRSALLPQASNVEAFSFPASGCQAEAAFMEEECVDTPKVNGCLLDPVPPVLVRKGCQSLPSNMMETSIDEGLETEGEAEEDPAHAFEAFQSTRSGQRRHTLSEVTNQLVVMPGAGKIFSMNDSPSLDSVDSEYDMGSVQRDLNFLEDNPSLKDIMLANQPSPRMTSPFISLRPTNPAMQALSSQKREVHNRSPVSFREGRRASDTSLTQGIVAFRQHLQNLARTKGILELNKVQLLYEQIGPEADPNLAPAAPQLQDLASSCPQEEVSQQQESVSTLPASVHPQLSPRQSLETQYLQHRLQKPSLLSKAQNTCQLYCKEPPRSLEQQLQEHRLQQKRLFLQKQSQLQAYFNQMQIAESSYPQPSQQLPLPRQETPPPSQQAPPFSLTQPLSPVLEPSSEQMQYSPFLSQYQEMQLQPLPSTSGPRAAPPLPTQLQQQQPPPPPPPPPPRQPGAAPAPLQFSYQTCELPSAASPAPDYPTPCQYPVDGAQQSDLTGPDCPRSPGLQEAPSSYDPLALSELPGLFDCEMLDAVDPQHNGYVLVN
The method, then:
as §1

The target of another test is T8, SGK1 (Homo sapiens, UniProt O00141).
T8 construct: purchased ProQinase (Freiburg, Germany)
T8 sequence (O00141 1-431): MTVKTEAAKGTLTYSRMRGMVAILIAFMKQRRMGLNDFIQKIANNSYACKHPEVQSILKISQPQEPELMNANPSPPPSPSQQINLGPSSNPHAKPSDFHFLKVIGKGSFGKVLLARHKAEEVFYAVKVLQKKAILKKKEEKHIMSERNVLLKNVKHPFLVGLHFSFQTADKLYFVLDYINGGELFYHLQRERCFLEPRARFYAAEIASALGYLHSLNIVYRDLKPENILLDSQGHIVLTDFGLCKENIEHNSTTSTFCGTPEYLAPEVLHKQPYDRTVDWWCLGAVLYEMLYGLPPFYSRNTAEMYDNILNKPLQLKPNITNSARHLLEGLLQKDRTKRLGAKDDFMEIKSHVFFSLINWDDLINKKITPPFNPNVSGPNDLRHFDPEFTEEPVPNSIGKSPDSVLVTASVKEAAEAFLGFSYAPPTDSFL
On the procedure: as §1

Structures are written as SMILES.

T6 sequence (Q9NYV4 whole entry): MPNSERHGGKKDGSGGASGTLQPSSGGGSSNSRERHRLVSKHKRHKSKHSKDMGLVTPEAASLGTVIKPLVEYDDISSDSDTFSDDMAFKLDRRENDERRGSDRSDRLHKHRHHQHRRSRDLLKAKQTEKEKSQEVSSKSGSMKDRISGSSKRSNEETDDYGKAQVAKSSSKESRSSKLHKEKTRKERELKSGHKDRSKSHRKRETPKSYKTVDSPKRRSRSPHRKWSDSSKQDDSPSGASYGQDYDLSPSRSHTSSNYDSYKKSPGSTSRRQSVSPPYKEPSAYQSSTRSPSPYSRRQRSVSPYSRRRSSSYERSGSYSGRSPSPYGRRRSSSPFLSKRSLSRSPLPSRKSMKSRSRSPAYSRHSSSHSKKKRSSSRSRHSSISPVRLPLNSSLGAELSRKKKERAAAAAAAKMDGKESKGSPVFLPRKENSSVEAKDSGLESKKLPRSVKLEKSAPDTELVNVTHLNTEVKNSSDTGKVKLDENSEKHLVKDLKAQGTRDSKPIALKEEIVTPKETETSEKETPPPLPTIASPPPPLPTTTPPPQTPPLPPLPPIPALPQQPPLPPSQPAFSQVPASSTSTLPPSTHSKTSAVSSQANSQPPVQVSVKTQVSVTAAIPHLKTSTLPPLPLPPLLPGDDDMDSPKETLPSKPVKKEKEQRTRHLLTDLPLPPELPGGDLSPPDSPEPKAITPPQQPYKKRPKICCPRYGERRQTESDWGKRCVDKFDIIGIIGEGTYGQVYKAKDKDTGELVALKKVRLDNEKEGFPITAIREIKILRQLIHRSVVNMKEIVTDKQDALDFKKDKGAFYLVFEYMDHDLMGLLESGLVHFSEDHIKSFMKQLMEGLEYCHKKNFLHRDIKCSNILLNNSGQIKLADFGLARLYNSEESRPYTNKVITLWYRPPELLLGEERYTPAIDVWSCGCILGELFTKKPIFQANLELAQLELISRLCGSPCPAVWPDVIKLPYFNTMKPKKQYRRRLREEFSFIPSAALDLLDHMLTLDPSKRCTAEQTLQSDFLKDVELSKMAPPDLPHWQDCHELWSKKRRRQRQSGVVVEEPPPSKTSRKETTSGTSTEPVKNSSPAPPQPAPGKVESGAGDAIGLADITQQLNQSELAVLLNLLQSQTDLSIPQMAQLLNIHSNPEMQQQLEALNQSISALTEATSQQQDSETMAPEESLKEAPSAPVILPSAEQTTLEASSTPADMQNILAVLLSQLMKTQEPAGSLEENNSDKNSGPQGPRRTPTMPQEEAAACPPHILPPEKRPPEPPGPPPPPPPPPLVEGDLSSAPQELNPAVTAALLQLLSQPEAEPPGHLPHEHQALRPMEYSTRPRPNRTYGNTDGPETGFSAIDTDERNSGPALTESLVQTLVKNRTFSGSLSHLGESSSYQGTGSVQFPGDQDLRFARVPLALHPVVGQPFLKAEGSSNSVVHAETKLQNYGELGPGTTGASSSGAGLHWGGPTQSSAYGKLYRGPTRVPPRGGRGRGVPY
T6 sequence (O75909 whole entry partner): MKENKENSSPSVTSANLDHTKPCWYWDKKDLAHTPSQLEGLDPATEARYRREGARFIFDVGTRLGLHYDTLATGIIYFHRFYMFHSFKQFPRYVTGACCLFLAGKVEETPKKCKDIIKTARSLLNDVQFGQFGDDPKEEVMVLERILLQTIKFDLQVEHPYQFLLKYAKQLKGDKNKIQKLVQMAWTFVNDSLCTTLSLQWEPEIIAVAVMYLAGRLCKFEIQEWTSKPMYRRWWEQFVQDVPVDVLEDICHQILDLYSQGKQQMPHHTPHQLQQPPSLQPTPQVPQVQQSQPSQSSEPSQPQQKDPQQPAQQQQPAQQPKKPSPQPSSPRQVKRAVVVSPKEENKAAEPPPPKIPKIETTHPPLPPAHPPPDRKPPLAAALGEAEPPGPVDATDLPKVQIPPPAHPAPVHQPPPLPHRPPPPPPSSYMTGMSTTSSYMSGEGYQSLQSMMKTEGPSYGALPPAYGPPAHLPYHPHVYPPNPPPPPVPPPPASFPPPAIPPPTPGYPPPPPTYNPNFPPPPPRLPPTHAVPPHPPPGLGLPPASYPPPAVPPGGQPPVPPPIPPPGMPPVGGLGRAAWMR

As to `O=C(Nc1ccc(F)c(Nc2ccc3c(c2)CCCCC3=O)c1)c1cccc(F)c1` [Compound 109], the Residual activity is on record as 89 % of control at TTK (1.0E-05 M); 91 % of control at TTK (1.0E-06 M); 94 % of control at EPHA6 (1.0E-05 M); 100 % of control at EPHA6 (1.0E-06 M); 82 % of control at PAK4 (1.0E-05 M); 98 % of control at PAK4 (1.0E-06 M). The Residual activity was 91 % of control on SLK (1.0E-05 M); 94 % of control on SLK (1.0E-06 M); 96 % of control on CDK3/CycC (1.0E-05 M); 87 % of control on CDK3/CycC (1.0E-06 M); 99 % of control on CDK12/CycK (1.0E-05 M); 105 % of control on CDK12/CycK (1.0E-06 M). Moreover, the Residual activity on SIK2 (1.0E-05 M) is on record as 82 % of control; on SIK2 (1.0E-06 M), 93 % of control; on SGK1 (1.0E-05 M), 97 % of control; on SGK1 (1.0E-06 M), 99 % of control.
On to `O=C(Cc1ccccc1)Nc1ccc(F)c(Nc2ccc3c(c2)CCCCC3=O)c1` [Compound 100], for which the Residual activity on TTK (1.0E-05 M) is on record as 95 % of control; at TTK (1.0E-06 M), 99 % of control; at EPHA6 (1.0E-05 M) it was 80 % of control; at EPHA6 (1.0E-06 M), 110 % of control; at PAK4 (1.0E-05 M), 92 % of control; at PAK4 (1.0E-06 M), 97 % of control. For the same compound, the Residual activity was 93 % of control on SLK (1.0E-05 M); 98 % of control on SLK (1.0E-06 M); 89 % of control at CDK3/CycC (1.0E-05 M); 97 % of control at CDK3/CycC (1.0E-06 M); 100 % of control at CDK12/CycK (1.0E-05 M); 104 % of control at CDK12/CycK (1.0E-06 M). For the same compound, the Residual activity at SIK2 (1.0E-05 M) is given as 81 % of control; on SIK2 (1.0E-06 M), 89 % of control; on SGK1 (1.0E-05 M) it was 85 % of control; on SGK1 (1.0E-06 M), 108 % of control.
